Measured values: ChEMBL document CHEMBL1201862, “PubChem BioAssay data set” (2004)
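All cell lines were grown in 96-well plates and treated with compound for 48 hours. GI50: concentration for 50% inhibition of growth.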 Calls of active or inactive are those of the source. No stated cut-off is given here; in the data, active = GI50 up to about 1.1 µM and inactive = higher.

Assays:
Experiment in all cases: NCI-60 cell line screen, 48 h
SK-MEL-28 = tested on: SK-MEL-28
HT-29 = tested on: HT-29
SK-OV-3 = tested on: SK-OV-3
HL-60 = tested on: HL-60
SF-539 = tested on: SF-539
TK-10 = tested on: TK-10
NCI-H522 = tested on: NCI-H522
M14 = tested on: M14
A498 = tested on: A498
ACHN = tested on: ACHN
U-251 = tested on: U-251
OVCAR-8 = tested on: OVCAR-8
RXF 393 = tested on: RXF 393
SNB-19 = tested on: SNB-19
SK-MEL-2 = tested on: SK-MEL-2
DU-145 = tested on: DU-145
MDA-MB-435 = tested on: MDA-MB-435
MCF7 = tested on: MCF7

Measured: GI50

Cc1ccc(NC(=O)CCc2cc(C(C)(C)C)nc(S)n2)cc1C
inactive: SK-MEL-28 > 100 µM | HT-29 > 100 µM | SK-OV-3 > 100 µM | HL-60 > 100 µM | SF-539 > 100 µM | TK-10 > 100 µM | NCI-H522 > 100 µM | M14 > 100 µM | A498 > 100 µM | ACHN > 100 µM | U-251 > 100 µM | OVCAR-8 > 100 µM | RXF 393 > 100 µM | SNB-19 > 100 µM | SK-MEL-2 > 100 µM

COc1cc2oc(=O)cc(C)c2c(OC)c1O
inactive: SK-MEL-28 > 100 µM | DU-145 > 100 µM | HT-29 > 100 µM | SK-OV-3 > 100 µM | SF-539 > 100 µM | TK-10 > 100 µM | MDA-MB-435 > 100 µM | M14 > 100 µM | A498 26.1 µM | ACHN > 100 µM | U-251 > 100 µM | OVCAR-8 > 100 µM | SNB-19 > 100 µM | SK-MEL-2 > 100 µM | MCF7 > 100 µM

COc1ccc(CNc2nc3ccc(C(F)(F)F)cc3nc2-c2ccccc2)cc1OC
inactive: SK-MEL-28 > 100 µM | HT-29 61.5 µM | SK-OV-3 > 100 µM | HL-60 6.98 µM | SF-539 54.3 µM | TK-10 71.6 µM | ACHN 27.7 µM | U-251 > 100 µM | OVCAR-8 > 100 µM | RXF 393 8.89 µM | SNB-19 > 100 µM | SK-MEL-2 > 100 µM

CC1(F)C=CC(=O)C=C1
inactive: SK-MEL-28 > 100 µM | DU-145 > 100 µM | HT-29 46.5 µM | SK-OV-3 > 100 µM | HL-60 27.6 µM | SF-539 37.9 µM | TK-10 38.9 µM | NCI-H522 37.4 µM | MDA-MB-435 35.7 µM | M14 > 100 µM | A498 > 100 µM | ACHN 59.6 µM | U-251 24.7 µM | OVCAR-8 19.6 µM | SNB-19 > 100 µM | SK-MEL-2 > 100 µM | MCF7 31.8 µM

COc1ccc2nc(-c3ccc(N)cc3)sc2c1
inactive: SK-MEL-28 > 100 µM | HT-29 66.5 µM | SK-OV-3 > 100 µM | HL-60 47.5 µM | SF-539 > 100 µM | TK-10 > 100 µM | NCI-H522 23.6 µM | MDA-MB-435 > 100 µM | M14 > 100 µM | A498 53.1 µM | ACHN 51.6 µM | U-251 35.6 µM | OVCAR-8 52.5 µM | RXF 393 > 100 µM | SNB-19 18.5 µM | SK-MEL-2 > 100 µM | MCF7 > 100 µM

CCCCCCCCCCCCCCCCCC(CCCCCCCCCCCCCCCCC)OP(=O)(O)O
inactive: SK-MEL-28 > 100 µM | HT-29 > 100 µM | SK-OV-3 > 100 µM | HL-60 > 100 µM | TK-10 > 100 µM | NCI-H522 > 100 µM | M14 > 100 µM | A498 > 100 µM | ACHN > 100 µM | U-251 > 100 µM | OVCAR-8 > 100 µM | RXF 393 > 100 µM | SNB-19 > 100 µM | SK-MEL-2 > 100 µM

CC(C)CC(=O)NC(C(=O)NC(C(=O)NC(CC(C)C)C(O)CC(=O)NC(C)C(=O)NC(CC(C)C)C(O)CC(=O)O)C(C)C)C(C)C (stereo unspecified)
inactive: SK-MEL-28 > 100 µM | DU-145 > 100 µM | HT-29 > 100 µM | SK-OV-3 > 100 µM | SF-539 > 100 µM | TK-10 > 100 µM | NCI-H522 > 100 µM | MDA-MB-435 > 100 µM | M14 > 100 µM | A498 > 100 µM | ACHN > 100 µM | U-251 > 100 µM | OVCAR-8 > 100 µM | SNB-19 > 100 µM | SK-MEL-2 > 100 µM | MCF7 > 100 µM
